The values below come from ChEMBL document CHEMBL1156642, “Discovery of betamethasone 17alpha-carbamates as dissociated glucocorticoid receptor modulators in the rat” (Bioorg Med Chem, 2008).

Bounds are passed on as bounds.

One test is filed under the species Rattus norvegicus. Briefly: Transactivation activity of glutamine synthase in rat skeletal muscle cells relative to Dexamethasone. Format: cell-based.
The target in test [1] is T1, Interstitial collagenase (Homo sapiens) (UniProt P03956).
T1 sequence (whole entry): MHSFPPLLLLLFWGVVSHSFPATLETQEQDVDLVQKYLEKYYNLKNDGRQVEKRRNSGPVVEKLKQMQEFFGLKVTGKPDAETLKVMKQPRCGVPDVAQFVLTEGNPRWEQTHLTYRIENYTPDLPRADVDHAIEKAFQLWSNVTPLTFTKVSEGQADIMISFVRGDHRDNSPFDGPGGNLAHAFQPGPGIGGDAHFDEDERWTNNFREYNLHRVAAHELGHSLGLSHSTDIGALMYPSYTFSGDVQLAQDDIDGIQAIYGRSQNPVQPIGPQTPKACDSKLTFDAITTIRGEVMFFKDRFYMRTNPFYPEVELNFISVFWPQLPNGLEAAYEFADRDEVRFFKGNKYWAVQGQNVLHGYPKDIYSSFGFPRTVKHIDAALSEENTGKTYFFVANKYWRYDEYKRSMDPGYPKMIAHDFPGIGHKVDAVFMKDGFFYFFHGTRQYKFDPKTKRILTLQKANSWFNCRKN
Kind of test: Inhibition of glucocorticoid-mediated human MMP1 expression in PMA stimulated A549 cells assessed as MMP1 protein level by ELISA relative to Dexamethasone. Set-up: scale not given: the % may be the effect or the level left. Format: cell-based. (ELISA stands for enzyme-linked immunosorbent assay.)

The next test deals with T2, Glucocorticoid receptor (Homo sapiens, UniProt P04150).
T2 sequence (P04150 whole entry): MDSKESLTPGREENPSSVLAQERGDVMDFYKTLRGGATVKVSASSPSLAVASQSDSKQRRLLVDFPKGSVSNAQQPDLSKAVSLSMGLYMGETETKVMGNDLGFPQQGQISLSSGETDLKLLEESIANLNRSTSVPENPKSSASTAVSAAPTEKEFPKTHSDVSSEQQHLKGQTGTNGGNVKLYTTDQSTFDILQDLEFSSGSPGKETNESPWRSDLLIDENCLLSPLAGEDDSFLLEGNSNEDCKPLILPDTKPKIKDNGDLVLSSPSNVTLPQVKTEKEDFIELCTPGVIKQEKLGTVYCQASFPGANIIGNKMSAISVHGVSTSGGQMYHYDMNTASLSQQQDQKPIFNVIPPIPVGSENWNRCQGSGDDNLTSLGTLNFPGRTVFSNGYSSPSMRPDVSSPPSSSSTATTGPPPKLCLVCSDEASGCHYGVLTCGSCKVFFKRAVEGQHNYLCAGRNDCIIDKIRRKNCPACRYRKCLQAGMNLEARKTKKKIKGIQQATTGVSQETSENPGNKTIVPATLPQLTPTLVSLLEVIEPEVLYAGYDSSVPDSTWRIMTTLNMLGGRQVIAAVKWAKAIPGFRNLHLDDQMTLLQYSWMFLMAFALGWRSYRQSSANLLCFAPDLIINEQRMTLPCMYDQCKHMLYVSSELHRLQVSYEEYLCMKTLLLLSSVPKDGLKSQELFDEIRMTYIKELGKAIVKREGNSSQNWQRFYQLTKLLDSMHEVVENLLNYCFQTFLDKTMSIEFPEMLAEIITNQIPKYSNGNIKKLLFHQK

In a further test the target is T3, Progesterone receptor (Homo sapiens, UniProt P06401).
T3 sequence (P06401 whole entry): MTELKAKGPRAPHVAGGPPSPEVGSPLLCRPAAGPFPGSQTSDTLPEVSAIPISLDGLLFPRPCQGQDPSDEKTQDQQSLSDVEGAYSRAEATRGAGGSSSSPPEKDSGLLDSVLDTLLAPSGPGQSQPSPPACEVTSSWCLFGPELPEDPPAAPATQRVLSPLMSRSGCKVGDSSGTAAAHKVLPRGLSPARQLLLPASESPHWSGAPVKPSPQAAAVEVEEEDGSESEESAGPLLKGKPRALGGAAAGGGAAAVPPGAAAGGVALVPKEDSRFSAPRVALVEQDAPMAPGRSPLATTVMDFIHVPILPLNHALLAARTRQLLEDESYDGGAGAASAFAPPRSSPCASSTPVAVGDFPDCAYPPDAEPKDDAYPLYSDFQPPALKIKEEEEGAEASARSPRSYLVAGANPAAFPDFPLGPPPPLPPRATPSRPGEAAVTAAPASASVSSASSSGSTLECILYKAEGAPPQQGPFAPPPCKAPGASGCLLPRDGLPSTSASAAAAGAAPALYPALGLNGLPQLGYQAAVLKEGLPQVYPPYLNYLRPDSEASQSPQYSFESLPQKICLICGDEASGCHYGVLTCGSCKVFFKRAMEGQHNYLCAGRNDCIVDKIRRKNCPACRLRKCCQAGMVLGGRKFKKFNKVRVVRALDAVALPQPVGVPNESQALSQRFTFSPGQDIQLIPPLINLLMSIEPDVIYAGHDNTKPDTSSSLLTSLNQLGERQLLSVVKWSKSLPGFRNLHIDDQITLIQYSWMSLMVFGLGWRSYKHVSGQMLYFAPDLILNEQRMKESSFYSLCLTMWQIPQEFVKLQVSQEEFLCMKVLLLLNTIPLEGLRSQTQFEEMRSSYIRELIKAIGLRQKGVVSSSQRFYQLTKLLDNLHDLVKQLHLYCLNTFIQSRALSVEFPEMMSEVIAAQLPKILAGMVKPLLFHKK
Kind of test: Inhibition of human progesterone receptor.

The nature of test [2]: Transactivation activity of glutamine synthase in rat skeletal muscle cells. Format: cell-based.

Description for Glucocorticoid receptor: Inhibition of human glucocorticoid receptor

For the compound `C[C@H]1C[C@H]2[C@@H]3CCC4=CC(=O)C=C[C@]4(C)[C@@]3(F)[C@@H](O)C[C@]2(C)[C@@]1(OC(=O)NC1CCCC1)C(=O)CO`, the figures for the Activity (in the test listed under Rattus norvegicus; in test [1]) were 23% and 76.1%, respectively. This compound also had an IC50 against Glucocorticoid receptor of 3.8 nM.
For `CC(C)NC(=O)O[C@]1(C(=O)CO)[C@@H](C)C[C@H]2[C@@H]3CCC4=CC(=O)C=C[C@]4(C)[C@@]3(F)[C@@H](O)C[C@@]21C`, in that order: 26%, 105% and 21.5 nM.
Take `C=CCNC(=O)O[C@]1(C(=O)CO)[C@@H](C)C[C@H]2[C@@H]3CCC4=CC(=O)C=C[C@]4(C)[C@@]3(F)[C@@H](O)C[C@@]21C`: the figures for the IC50 against Progesterone receptor and on Glucocorticoid receptor were over 1000 nM and 17.4 nM, respectively. For the same compound, the Activity in the test filed under Rattus norvegicus was found to be 16%; in test [1], 106%.
In the case of `COC(=O)[C@H](C)NC(=O)O[C@]1(C(=O)CO)[C@@H](C)C[C@H]2[C@@H]3CCC4=CC(=O)C=C[C@]4(C)[C@@]3(F)[C@@H](O)C[C@@]21C`, in test [2], the EC50 amounted to 47 nM. Moreover, the Activity in the test filed under Rattus norvegicus amounted to 103%; in test [1] it was 107%. For the same compound, at Glucocorticoid receptor, it took 28.6 nM to reach half-maximal inhibition (IC50).
Regarding `C[C@H]1C[C@H]2[C@@H]3CCC4=CC(=O)C=C[C@]4(C)[C@@]3(F)[C@@H](O)C[C@]2(C)[C@@]1(OC(=O)NC(C)(C)CC(C)(C)C)C(=O)CO`, in test [2], it took 223 nM to reach a half-maximal effect (EC50). The results for the IC50 against Progesterone receptor and at Glucocorticoid receptor were over 1000 nM and 5.7 nM, respectively. Further, the Activity in the test filed under Rattus norvegicus turned out to be 50%; in test [1] it was 80.3%.
The like results for `C[C@H](NC(=O)O[C@]1(C(=O)CO)[C@@H](C)C[C@H]2[C@@H]3CCC4=CC(=O)C=C[C@]4(C)[C@@]3(F)[C@@H](O)C[C@@]21C)c1ccccc1` were, in that order, 0.6 nM, 176 nM, 1.3 nM, 49% and 93%.
With `C[C@H]1C[C@H]2[C@@H]3CCC4=CC(=O)C=C[C@]4(C)[C@@]3(F)[C@@H](O)C[C@]2(C)[C@@]1(OC(=O)NCC(C)(C)C)C(=O)CO`, the Activity in test [1] was 44.7%. Moreover, the IC50 at Glucocorticoid receptor stood at 352 nM.
Turning to `C[C@H]1C[C@H]2[C@@H]3CCC4=CC(=O)C=C[C@]4(C)[C@@]3(F)[C@@H](O)C[C@]2(C)[C@@]1(OC(=O)NC1CCCCC1)C(=O)CO`, on Progesterone receptor, the IC50 is 120 nM. Further, the Activity in the test filed under Rattus norvegicus worked out at 24.7%; in test [1], 82%.
With `C[C@H]1C[C@H]2[C@@H]3CCC4=CC(=O)C=C[C@]4(C)[C@@]3(F)[C@@H](O)C[C@]2(C)[C@@]1(OC(=O)NC12CC3CC(CC(C3)C1)C2)C(=O)CO`, in test [1], the Activity came out at 84.1%. This compound came in with an IC50 on Glucocorticoid receptor of 5.8 nM.
In test [2], `C[C@H]1C[C@H]2[C@@H]3CCC4=CC(=O)C=C[C@]4(C)[C@@]3(F)[C@@H](O)C[C@]2(C)[C@@]1(OC(=O)NCCC(C)(C)C)C(=O)CO` had an EC50 of 576 nM. Moreover, the Activity in the test filed under Rattus norvegicus is 61.8%; in test [1], 56.3%. For the same compound, the IC50 at Glucocorticoid receptor was determined as 12.3 nM.
On to `C[C@H]1C[C@H]2[C@@H]3CCC4=CC(=O)C=C[C@]4(C)[C@@]3(F)[C@@H](O)C[C@]2(C)[C@@]1(OC(=O)NC(C)(C)C)C(=O)CO`, for which, in test [2], it took 0.37 nM to reach a half-maximal effect (EC50). The Activity in the test listed under Rattus norvegicus was 64%; in test [1], 94%. For the same compound, the IC50 against Glucocorticoid receptor was found to be 2.4 nM.
In test [2], `CCC(C)NC(=O)O[C@]1(C(=O)CO)[C@@H](C)C[C@H]2[C@@H]3CCC4=CC(=O)C=C[C@]4(C)[C@@]3(F)[C@@H](O)C[C@@]21C` (some centres not stated) gave an EC50 of 0.3 nM. Also, the values for the Activity (in the test listed under Rattus norvegicus; in test [1]) were 54% and 97.5%, respectively. In addition, half-maximal inhibition on Glucocorticoid receptor (IC50) required 0.5 nM.
In the case of `CCCCNC(=O)O[C@]1(C(=O)CO)[C@@H](C)C[C@H]2[C@@H]3CCC4=CC(=O)C=C[C@]4(C)[C@@]3(F)[C@@H](O)C[C@@]21C`, the Activity in the test filed under Rattus norvegicus was found to be 31.3%; in test [1] it was 98%. This compound gave an IC50 at Glucocorticoid receptor of 2.8 nM.
In turn, `CCCCCNC(=O)O[C@]1(C(=O)CO)[C@@H](C)C[C@H]2[C@@H]3CCC4=CC(=O)C=C[C@]4(C)[C@@]3(F)[C@@H](O)C[C@@]21C` yielded an EC50 in test [2] of 0.4 nM. For the same compound, the Activity worked out at 60.3% in the test filed under Rattus norvegicus and 97.5% in test [1]. This compound also returned an IC50 against Glucocorticoid receptor of 2.1 nM.
`CCC(C)(C)NC(=O)O[C@]1(C(=O)CO)[C@@H](C)C[C@H]2[C@@H]3CCC4=CC(=O)C=C[C@]4(C)[C@@]3(F)[C@@H](O)C[C@@]21C`: the Activity in the test listed under Rattus norvegicus worked out at 35%; in test [1] it was 65.9%. For the same compound, on Glucocorticoid receptor, the IC50 is 55.1 nM.
The compound `C[C@@H](NC(=O)O[C@]1(C(=O)CO)[C@@H](C)C[C@H]2[C@@H]3CCC4=CC(=O)C=C[C@]4(C)[C@@]3(F)[C@@H](O)C[C@@]21C)c1ccccc1` displayed an EC50 in test [2] of 1.6 nM. Moreover, the values for the Activity (in the test listed under Rattus norvegicus; in test [1]) were 92% and 87.5%, respectively. For the same compound, the IC50 at Glucocorticoid receptor was found to be 5.2 nM.

A word on the IC50: it is the point on the concentration scale where inhibition reaches its midpoint. As usually defined, the EC50 is the midpoint of the concentration-response curve.
